According to EPA's ToxRefDB 2:

Experiments:
rat [1] = details: Prenatal developmental toxicity study, sprague dawley, Oral, Gavage/Intubation, dose end: 16 GD
rat [2] = details: Combined chronic toxicity/carcinogenicity, sprague dawley, Oral, Feed, dose end: 23 month, group: systemic
mouse [3] = details: Carcinogenicity, cd1, Oral, Feed, dose end: 18 month, group: systemic
mouse [4] = details: Subchronic oral toxicity in rodents, cd1, Feed, dose end: 90 day, group: systemic, systemic / organ weight / liver / absolute + systemic / organ weight / liver / relative to body weight + systemic / organ weight / liver / …
rat [5] = details: Subchronic oral toxicity in rodents, sprague dawley, Feed, dose end: 90 day, group: systemic, systemic / clinical chemistry / cytochrome p450, nos / cytochrome p450, nos + systemic / in life observation / body weight / body weight …
dog [6] = details: Chronic toxicity, beagle, Oral, Feed, dose end: 52 week, group: systemic
rabbit = details: Prenatal developmental toxicity study, other, Oral, Gavage/Intubation, dose end: 19 GD
dog [7] = details: Subchronic oral toxicity in nonrodent, beagle, Feed, dose end: 90 day, group: systemic, systemic / hematology / erythrocyte (rbc) count differential / erythrocyte (rbc) + systemic / hematology / hematocrit (hct) / hematocrit (…
rat [8] = details: Multigenerational reproductive toxicity study, other, Oral, Feed, dose end: 2 generation
rat [9] = details: Carcinogenicity, fischer, Oral, Gavage/Intubation, dose end: 2 year, group: systemic
mouse [10] = details: Carcinogenicity, b6c3f1, Oral, Gavage/Intubation, dose end: 2 year, group: systemic
mouse [11] = details: Subchronic oral toxicity in rodents, b6c3f1, Gavage/Intubation, dose end: 13 week, group: systemic
rat [12] = details: Subchronic oral toxicity in rodents, fischer, Gavage/Intubation, dose end: 13 week, group: systemic
[13] = group: developmental, developmental / developmental malformation / bone / delayed ossification + developmental / developmental malformation / bone / short
[14] = group: maternal, systemic / in life observation / clinical signs / salivation
[15] = group: maternal, systemic / in life observation / clinical signs / salivation + systemic / in life observation / body weight / body weight gain + systemic / …
[16] = systemic / hematology / erythrocyte (rbc) count differential / erythrocyte (rbc) + systemic / hematology / hematocrit (hct) / hematocrit (…
[17] = systemic / pathology microscopic / liver / adenoma
[18] = systemic / pathology microscopic / liver / adenoma + systemic / hematology / platelet / platelet + systemic / in life observation / body …
[19] = systemic / in life observation / body weight / body weight gain + systemic / organ weight / thyroid gland / absolute + systemic / organ …
[20] = systemic / in life observation / clinical signs / salivation
[21] = group: developmental, systemic / in life observation / body weight / fetal weight
[22] = group: maternal, reproductive / reproductive performance / resorptions / resorptions + systemic / in life observation / body weight / body weight gain + …
[23] = group: offspring, systemic / in life observation / body weight / offspring (pup) weight + systemic / in life observation / body weight / offspring (pup) …
[24] = group: parental, systemic / in life observation / body weight / body weight + systemic / in life observation / body weight / body weight gain + systemic / in…
[25] = systemic / pathology microscopic / spleen / leukemia mononuclear
[26] = systemic / pathology microscopic / spleen / leukemia mononuclear + systemic / pathology microscopic / stomach / papilloma + systemic / …
[27] = systemic / pathology microscopic / stomach / hyperplasia
[28] = systemic / pathology microscopic / stomach / papilloma + systemic / pathology microscopic / stomach / hyperplasia
[29] = systemic / in life observation / mortality / mortality + systemic / in life observation / body weight / body weight + systemic / pathology …
[30] = systemic / in life observation / mortality / mortality + systemic / pathology microscopic / brain / degeneration + systemic / pathology …

COc1cc(OC)nc(Sc2cccc(Cl)c2C(=O)[O-])n1.[Na+] [Pyrithiobac-sodium]
LEL (rat [1]; [13]): 1800 mg/kg/day | LOAEL (rat [1]; [13]): 1800 mg/kg/day | NEL (rat [1]; [13]): 600 mg/kg/day | NOAEL (rat [1]; [13]): 600 mg/kg/day | LEL (rat [1]; [14]): 200 mg/kg/day | LOAEL (rat [1]; [14]): 200 mg/kg/day | NEL (rat [1]; [15]): 30 mg/kg/day | NOAEL (rat [1]; [15]): 30 mg/kg/day | LEL (rat [2]; systemic / clinical chemistry / sodium / sodium): 1.36 mg/kg/day | NEL (rat [2]; systemic / clinical chemistry / sodium / sodium + systemic / pathology microscopic / kidney / adenoma + systemic / in life observation / …): 0.274 mg/kg/day | LOAEL (rat [2]; [16]): 200 mg/kg/day | NOAEL (rat [2]; [16]): 58.7 mg/kg/day | LEL (mouse [3]; [17]): 21.4 mg/kg/day | LOAEL (mouse [3]; [17]): 21.4 mg/kg/day | NEL (mouse [3]; [18]): 1.43 mg/kg/day | NOAEL (mouse [3]; [18]): 1.43 mg/kg/day | LEL (mouse [4]): 263 mg/kg/day | LOAEL (mouse [4]): 263 mg/kg/day | NEL (mouse [4]): 83.1 mg/kg/day | NOAEL (mouse [4]): 83.1 mg/kg/day | LEL (rat [5]): 31.8 mg/kg/day | LOAEL (rat [5]): 31.8 mg/kg/day | NEL (rat [5]): 3.25 mg/kg/day | NOAEL (rat [5]): 3.25 mg/kg/day | LOAEL (dog [6]; [19]): 580 mg/kg/day | NOAEL (dog [6]; [19]): 143 mg/kg/day | LEL (dog [6]; [20]): 2.8 mg/kg/day | NEL (dog [6]; [20]): < 2.8 mg/kg/day | LEL (rabbit; [21]): 1000 mg/kg/day | LOAEL (rabbit; [21]): 1000 mg/kg/day | NEL (rabbit; [21]): 300 mg/kg/day | NOAEL (rabbit; [21]): 300 mg/kg/day | LEL (rabbit; [22]): 1000 mg/kg/day | LOAEL (rabbit; [22]): 1000 mg/kg/day | NEL (rabbit; [22]): 300 mg/kg/day | NOAEL (rabbit; [22]): 300 mg/kg/day | LEL (dog [7]): 626 mg/kg/day | LOAEL (dog [7]): 626 mg/kg/day | NEL (dog [7]): 165 mg/kg/day | NOAEL (dog [7]): 165 mg/kg/day | LOAEL (rat [8]; group: offspring, systemic / in life observation / body weight / offspring (pup) weight): 614 mg/kg/day | LEL (rat [8]; [23]): 614 mg/kg/day | NEL (rat [8]; [23]): 119 mg/kg/day | NOAEL (rat [8]; [23]): 119 mg/kg/day | LOAEL (rat [8]; [24]): 439 mg/kg/day | NOAEL (rat [8]; [24]): 85.6 mg/kg/day | LEL (rat [8]; group: parental, systemic / in life observation / food consumption / food efficiency): 119 mg/kg/day | NEL (rat [8]; group: parental, systemic / in life observation / food consumption / food efficiency + systemic / in life observation / body weight / body weight + systemic…): 1.93 mg/kg/day

O=Cc1ccccc1 [Benzaldehyde]
LEL (rat [9]; [25]): 200 mg/kg/day | NEL (rat [9]; [25]): < 200 mg/kg/day | LOAEL (rat [9]; [26]): > 400 mg/kg/day | NOAEL (rat [9]; [26]): ≥ 400 mg/kg/day | LOAEL (mouse [10]; [27]): > 400 mg/kg/day | NOAEL (mouse [10]; [27]): ≥ 400 mg/kg/day | LEL (mouse [10]; [28]): 300 mg/kg/day | NEL (mouse [10]; [28]): < 300 mg/kg/day | NEL (mouse [11]; systemic / in life observation / body weight / body weight + systemic / in life observation / mortality / mortality + systemic / pathology …): 300 mg/kg/day | LEL (mouse [11]; systemic / in life observation / body weight / body weight + systemic / pathology microscopic / kidney / degeneration): 600 mg/kg/day | LOAEL (mouse [11]; [29]): > 1200 mg/kg/day | NOAEL (mouse [11]; [29]): ≥ 1200 mg/kg/day | LEL (rat [12]; systemic / in life observation / mortality / mortality): 400 mg/kg/day | LOAEL (rat [12]; [30]): > 800 mg/kg/day | NEL (rat [12]; [30]): 200 mg/kg/day | NOAEL (rat [12]; [30]): ≥ 800 mg/kg/day
